{"source": "patent US20240016863A1", "about": "“LACTOBACILLUS JOHNSONII AND METHOD FOR INCREASING THE LEVEL OF UNSATURATION IN FATTY ACID USING LACTOBACILLUS JOHNSONII OR METABOLITES THEREOF” (TCI CO., LTD., priority 2022, published 2024)", "system": "HepG2 cells", "test": "Cholesterol metabolism test (cholesterol uptake, NBD cholesterol, flow cytometer)", "format": "cell-based, Human", "details": "U-18666A 1.25 μM, sample 0.25% (v/v)", "procedure": "1. Cell line: Human liver cells, purchased from ATCC (American Type Culture Collection), cell number: HB-8065, hereinafter referred to as HepG2 cells.\n5. Cholesterol Uptake Cell-based Assay Kit: purchased from Cayman; product number: 600440. This cholesterol uptake cell-based assay kit included U-18666A and NBD cholesterol.\n1. The HepG2 cells were inoculated into a 6-well culture plate containing 2 mL of cell medium in each well according to a density of 1×10^5 cells per well, and cultured at 37° C. for 24 h. The HepG2 cells were divided into three test groups, i.e., a Mock group, a control group and an experiment group, respectively. Each group underwent trial in triplicate.\n2. […]\n4. After rinsing, the cells of each group were processed according to the test process provided by the cholesterol uptake cell-based assay kit to obtain a test sample of each group; the parameters of the flow cytometer were set as excitation spectra and emission spectra of FITC, and then a green fluorescence signal of each group was detected by using the flow cytometer.\nThe relative cholesterol uptake in hepatocytes of all groups was calculated according to the following formula: relative cholesterol uptake in hepatocytes (%)=(green fluorescence signal of each group/green fluorescence signal of the Mock group)×100%."}
{"smiles": "CCN(CC)CCO[C@H]1CC[C@@]2(C)C(=CC[C@@H]3[C@@H]2CC[C@]2(C)C(=O)CC[C@@H]32)C1", "note": "[U-18666A]", "values": [{"measurement": "relative cholesterol uptake in hepatocytes", "setting": "HepG2, 20 μg/mL NBD cholesterol, 24-72 h, Mock group = 100%", "result": 143.5, "unit": "%"}, {"measurement": "relative cholesterol uptake in hepatocytes increased compared with the Mock group", "setting": "HepG2", "result": "about 43.5%"}]}
